# Laboratory results reported in patent US9827250B2, “Lens incorporating myopia control optics and muscarinic agents” (Johnson & Johnson Vision Care, Inc., priority 2012, dated 2017).
# Key:
# [1] = system: progression of myopia; conditions: 0.5 percent drops instilled one time per day; cited from earlier work
# [2] = Drug release from drug loaded lenses into PBS; format: physicochemical; conditions: 34 degrees C
# Method: Five drug loaded lenses, all together, were placed into 1 mL of phosphate buffered saline (PBS) and placed in a shaking water bath at thirty-four (34) degrees C. Samples were taken at regular intervals and replaced with fresh PBS. Release samples were analyzed spectrophotometrically to determine the concentration. As well, the nature of the peaks was also examined to determine whether there were any changes relative to the control samples (freshly prepared drug in appropriate buffer solutions). Drug loading and release was controlled using different loading concentrations to determine whether the release rate of the drug could be altered by changing simply or easily controlled conditions. Various drug concentrations were examined. In the case of 1 DAM, AT in ethanol and water (1:1) at various concentrations was examined or utilized. For the ATSM release from ATE lenses, the lenses were removed from the loading solution and rinsed to remove loosely physically adsorbed drug. For the 1 DAM lenses, the lenses were dried to remove any residual ethanol and rehydrated prior to the release study.
# To establish drug release concentrations, five drug loaded lenses were placed into 1 ml of phosphate buffered saline (PBS) solution and placed in a shaking water bath at 34° C. […] Samples of solution were analyzed spectrophotometrically to determine the concentration of the released drug.
SMILES,efficacy in slowing the progression of myopia [1],"release of drug from 1 DAM lenses ([2]; 1 DAM lenses, FIG. 5)","release rate from ATE lenses as compared to 1 DAM lenses ([2]; ATE lenses, FIG. 7)"
"CN1[C@@H]2CC[C@H]1C[C@@H](OC(=O)C(CO)c1ccccc1)C2 (stereo partly drawn) [Atropine, atropine]",show efficacy in slowing the progression of myopia,–,–
"CN1[C@@H]2CC[C@H]1C[C@@H](OC(=O)C(CO)c1ccccc1)C2 (stereo partly drawn) [ATSM, atropine sulphate monohydrate]",–,release more quickly in greater amounts,somewhat lower release rate
